In one data set the test system is endosomal EEA1-pERK1/2. Kind of data set: Immunofluorescence of endosomal EEA1-pERK1/2 dual signal in spinal dorsal horn after excitotoxic SCI. The data set is classed as in vivo, rat. To be noted: IP treatment, 28 days post-injury; vs vehicle, p<0.001. The source says: (§1) Twenty-four male SD rats were randomly assigned to three groups: (A) FluBZ treatment plus intraspinal injection of QUIS (n=10); (B) vehicle treatment plus intraspinal injection of QUIS (n=10); and (C) Sham operation (intraspinal injection of saline, n=4). Assessment of excessive grooming behavior was used to evaluate the effects of FluBZ or vehicle on the development of the spontaneous pain behavior following excitotoxic SCI. The survival time of animals consisted of a period of 4 weeks or until tissue damage progressed beyond the superficial layers of skin, at which time (<4 weeks) animals were euthanized. FluBZ (10 mg/kg/day) or vehicle was intraperitoneally injected once daily for a period of 7 days post-injection of QUIS. The FluBZ or vehicle treatment began at 3 h post-QUIS injection. FluBZ (Sigma) was dissolved in 0.9% saline plus 0.01% Tween 80 (Vehicle). […]
(§2) The stereological analysis of image data within dorsal horn of spinal cord in sham or QUIS-injured animals with treatment of FluBZ or vehicle will be performed using NIS-Elements AR program. Serial double-labeled immunofluorescent signal images of spinal cord sections at lesion epicenter and 2 mm rostral and caudal to the lesion site were analyzed using methods of Binary Layers and Automated Measurement Results. […]

Data set [1] has as its system α-tubulin N-acetyltransferase ATAT1/MEC-17. Kind of data set: Immunofluorescence of α-tubulin acetyltransferase MEC-17 in spinal dorsal horn after excitotoxic SCI. The format is in vivo, rat. To be noted: IP for 7 days from 3 h post-QUIS; lesion site, 28 days after injury; vs vehicle, p<0.01.
Text: as §1, §2

In another data set the test system is acetylated α-tubulin. In words: Immunofluorescence of acetylated α-tubulin in spinal dorsal horn after excitotoxic SCI. The format is in vivo, rat. To be noted: IP for 7 days from 3 h post-QUIS; lesion site, 28 days after injury; vs vehicle, p<0.001.
Text: as §1, §2

The conditions of data set [2]: rats, pigs, sheep, dogs or humans; cited from earlier work.
In the next data set the test system is mitochondrial cyclin B1. In words: Immunofluorescence of mitochondrial cyclin B1 (cyclin B1/VDAC1 dual signal) in spinal dorsal horn after excitotoxic SCI. The format is in vivo, rat. Conditions: 10 mg/kg/day for 7 days post-injury; 28 days following injury; vs vehicle, p<0.001.
Text: as §1, §2

For another data set, the system named is endosomal EEA1-NR1. In words: Immunofluorescence of endosomal EEA1-NMDAR1 (NR1) dual signal in spinal dorsal horn after excitotoxic SCI. Conditions: post-treatment, 28 days post-excitotoxic injury; vs vehicle, p<0.001. The format is in vivo, rat.
Text: as §1, §2

The subject of data set [3] is rat excitotoxic SCI pain model. In words: Spontaneous pain-related excessive grooming behavior after excitotoxic SCI (intraspinal QUIS). The format is in vivo.
Text: Male Sprague-Dawley (SD) adult rats at 3 months, weighing 220-250 g, were used (Charles River, Indianapolis, Ind.). Rats were kept under standard housing conditions (12:12 light and dark cycle) with food and water ad libitum for at least 1 week following arrival in an enclosed, pathogen-free animal facility. All experimental procedures were approved and carried out in accordance with the Guidelines of the US National Institutes of Health and Institutional Animal Care and Use Committee (IACUC) of the University of Kentucky.
Excitotoxic SCI was produced by intraspinal injection of the glutamatergic AMPA/metabotropic receptor agonist quisqualic acid (QUIS) as previously described. Briefly, rats were anesthetized with a mixture of ketamine and xylazine (intraperitoneally, IP). Animals were placed in a stereotaxic unit and the spinal column immobilized with a vertebral clamp. One injection window for intraspinal injection was made by laminectomy between spinal segments T12-L1. Injections of 125 mM QUIS was made unilaterally at three levels of the cord by convection enhanced delivery. Injections, spaced 0.3 mm apart, were made at a depth of 1000 μm below the surface in segments T12-L1 between the dorsal root entry zone and the dorsal vein. These coordinates place injections in the center of the gray matter between spinal laminae IV-VI. The total volume of QUIS injected was 1.2 μl (0.4 μl each site, delivered over 4 minutes). Following injections, muscles were sutured over the laminectomy site, and the skin closed with wound clips.
as §1, with “euthanized.” for “euthanized. FluBZ (10 mg/kg/day) or vehicle was intraperitoneally injected once daily for a period of 7 days post-injection of QUIS. The FluBZ or vehicle treatment began at 3 h post-QUIS injection. FluBZ (Sigma) was dissolved in 0.9% saline plus 0.01% Tween 80 (Vehicle).”
Assessment of the spontaneous pain-related excessive grooming behavior was performed as described in previous studies. […] Quantitative analysis of spontaneous excessive grooming pain behavior consisted of the incidence, onset time, mean area of skin damage, and severity of overgrooming pain behaviors for all animals as previously described.
Data related to the onset time, area of grooming-induced skin damage, and immunofluorescent number of object and mean intensity are expressed as mean ±standard error of mean (SEM) and analyzed by using a commercially available computer program (StatView; SAS Institute, Inc, Cary, N.C.). […]

The conditions of data set [4]: cited from earlier work.

Regarding `COC(=O)Nc1nc2cc(C(=O)c3ccc(F)cc3)ccc2[nH]1` [FluBZ, Flubendazole], in the data set with endosomal EEA1-pERK1/2, the “endosomal EEA1-pERK1/2 fluorescent binary number object, binary area fraction, binary area, and mean intensity in the dorsal horn” value is listed as “significantly inhibited”. Besides, in data set [1], the “expression of acetyltransferase MEC-17 in the spinal dorsal horn” value was “significantly decreased”. Further, in the data set on acetylated α-tubulin, the “α-tubulin acetylation in the spinal dorsal horn” value is reported as “significantly decreased”. Besides, the “bioavailability after oral treatment” value in data set [2] was “very low”. Further, in the data set with mitochondrial cyclin B1, the “mitochondrial cyclin b1 activity in the dorsal horn” value is given as “significantly reduced”. In addition, the “endosomal EEA1-NR1 fluorescent signals in the dorsal horn” value with endosomal EEA1-NR1 is “significantly suppressed”. Further, in data set [3] (10 mg/kg/day IP for 7 days, starting 3 h post-injury, vehicle-treated control 75%), the “incidence of pain behavior” value was determined as 40%. In addition, in data set [3] (10 mg/kg/day IP once daily for 7 days, starting 3 h post-QUIS, vehicle average onset 11 days, n=10), the “onset of excessive grooming pain behaviors” value is 19 days after excitotoxic injury. For the same compound, in data set [3] (10 mg/kg/day for one week post-excitotoxic injury, vs vehicle, p<0.001), the “size of the grooming area (skin damage)” value is listed as “significant reduction”. Moreover, the “severity of grooming class” value in data set [3] (10 mg/kg/day for one week post-excitotoxic injury, vs vehicle, p<0.01) is on record as “significant reduction”. In addition, the “solubility in aqueous systems” value in data set [4] is recorded as “poorly soluble”.
As for `COC(=O)Nc1nc2ccc(Sc3ccccc3)cc2[nH]1` [FBZ, fenbendazole], in data set [2], the “bioavailability after oral treatment” value was “very low”. The “solubility in aqueous systems” value in data set [4] is on record as “poorly soluble”.

(Values after patent US20200000775A1, “ATTENUATION OF NEUROPATHIC PAIN AFTER SPINAL CORD INJURY” (University of Kentucky Research Foundation, priority 2018, published 2020).)
